This is an account of results in ChEMBL document CHEMBL1201862, “PubChem BioAssay data set” (2004).

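Exposure lasted 48 hours, with cells grown in 96-well plates and compounds tested at five concentrations. Abbreviation: GI50, concentration required for 50% inhibition of growth.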 Active and inactive are the calls of the source. Cut-off read from the data, not from the text of the source: active = GI50 up to about 1.1 µM and inactive = higher. Some results are limits rather than exact numbers.

Among the test systems are SNB-75; A549; HL-60; K562; OVCAR-4; MOLT-4; HOP-92; TK-10; HCT-15; RPMI-8226; SR; HT-29; SK-MEL-28; SN12C; RXF 393; NCI/ADR-RES; T47D; OVCAR-5; MDA-N.
Assay in all cases: NCI-60 cell line screen, 48 h

Consider `CS/C(=N\C(=S)N(C)C)N(c1ccccc1)c1nc(N(C)C)s[s+]1`, for which the GI50 is 3.18 µM (inactive) with SNB-75; 3.84 µM (inactive) in the assay on A549; 1.61 µM (inactive) with HL-60; 2.56 µM (inactive) in the assay on K562; 12.2 µM (inactive) with OVCAR-4; 3.08 µM (inactive) with MOLT-4. The GI50 was 20.9 µM (inactive) in the assay on HOP-92; 40.3 µM (inactive) in the assay on TK-10; 19.8 µM with HCT-15; 1.84 µM (inactive) in the assay on RPMI-8226; 3.98 µM (inactive) with SR; 2.67 µM (inactive) with HT-29. Also, the values for the GI50 with SK-MEL-28, in the assay on SN12C and with RXF 393 were 2.21 µM (inactive), 13.1 µM (inactive) and 14 µM (inactive), respectively.
Consider `Cc1c(/C=N\NC(=S)NCCNC(=S)N/N=C\c2c(C)n(C)n(-c3ccccc3)c2=O)c(=O)n(-c2ccccc2)n1C`, for which the GI50 in the assay with SNB-75 is 38 µM (inactive); in the assay on A549, > 100 µM (inactive); in the assay with NCI/ADR-RES, > 100 µM (inactive); with OVCAR-4, > 100 µM (inactive); with MOLT-4 it was > 100 µM (inactive); with HOP-92 it was > 100 µM (inactive). The GI50 is > 100 µM (inactive) in the assay on TK-10; > 100 µM (inactive) in the assay on T47D; > 100 µM (inactive) with OVCAR-5; more than 100 µM in the assay with HCT-15; > 100 µM (inactive) in the assay with SR; > 100 µM (inactive) in the assay on HT-29. In the assay with RXF 393, the GI50 is > 100 µM (inactive).
On to `NCCSc1nc2ccccc2s1`, for which the GI50 in the assay on SNB-75 is 22.8 µM (inactive); in the assay with A549, 48.3 µM (inactive); in the assay with NCI/ADR-RES, 42.6 µM (inactive); in the assay on HL-60, 73.5 µM (inactive); in the assay on K562, 10.6 µM (inactive); with OVCAR-4, 29 µM (inactive). Besides, the GI50 in the assay on MOLT-4 was 34.9 µM (inactive); in the assay on HOP-92 it was 25.5 µM (inactive); with TK-10, 24.9 µM (inactive); with OVCAR-5 it was 38.3 µM (inactive); in the assay on HCT-15 it was 42.9 µM; in the assay on RPMI-8226, 31.9 µM (inactive). For the same compound, the GI50 in the assay on SR was 25.9 µM (inactive); with MDA-N, 38.3 µM (inactive); in the assay on HT-29 it was 34 µM (inactive); in the assay with SK-MEL-28, > 100 µM (inactive); with SN12C it was 38.7 µM (inactive); in the assay with RXF 393, 29.5 µM (inactive).
For the compound `CC1=C[P+](c2ccccc2)(c2ccccc2)c2ccccc2O1`, the GI50 was 11.4 µM (inactive) in the assay on SNB-75; 13.6 µM (inactive) in the assay on A549; > 100 µM (inactive) with NCI/ADR-RES; 2.06 µM (inactive) with HL-60; 0.524 µM (active) in the assay on K562; 3.42 µM (inactive) with OVCAR-4. Moreover, the GI50 is 2.15 µM (inactive) in the assay on MOLT-4; 3.73 µM (inactive) in the assay on HOP-92; 14 µM (inactive) in the assay with TK-10; 0.597 µM (active) in the assay with T47D; 17.4 µM (inactive) with OVCAR-5; more than 100 µM in the assay on HCT-15. The GI50 with SR is 1.56 µM (inactive); in the assay on HT-29 it was 2.91 µM (inactive); with SK-MEL-28 it was 7.01 µM (inactive); with SN12C, 1.32 µM (inactive); with RXF 393, > 100 µM (inactive).
`COc1c(O)cc(O)c2c(=O)cc(-c3ccccc3)oc12` [WOGONIN]: the GI50 in the assay on SNB-75 was 56.1 µM (inactive); in the assay with A549, 42.9 µM (inactive); with NCI/ADR-RES, 60.5 µM (inactive); with HL-60, 21.5 µM (inactive); with K562 it was 25.1 µM (inactive); with OVCAR-4, 77.4 µM (inactive). Moreover, the GI50 with MOLT-4 is 36.1 µM (inactive); with HOP-92 it was > 100 µM (inactive); in the assay on TK-10, 60.8 µM (inactive); in the assay on OVCAR-5 it was 49.7 µM (inactive); in the assay with HCT-15, 35.1 µM; with RPMI-8226, 17.5 µM (inactive). The GI50 is 22.1 µM (inactive) with SR; 84.7 µM (inactive) with MDA-N; 51.9 µM (inactive) in the assay on HT-29; > 100 µM (inactive) with SK-MEL-28; 90.6 µM (inactive) with SN12C; 17.5 µM (inactive) with RXF 393.
In the case of `COc1ccc2[nH]cc(CCNC(=O)[C@H](Cc3ccccc3)NC(=O)[C@@H](NCC(F)(F)F)C(C)C)c2c1`, the GI50 with A549 was 27 µM (inactive); in the assay on NCI/ADR-RES it was 19.1 µM (inactive); in the assay on HL-60, 20.1 µM (inactive); with K562, 29.7 µM (inactive); in the assay on OVCAR-4, 16.3 µM (inactive); in the assay on MOLT-4, 20.4 µM (inactive). Also, the GI50 with HOP-92 is 12.1 µM (inactive); in the assay with TK-10 it was 22 µM (inactive); with OVCAR-5, 18.3 µM (inactive); with HCT-15, 21.4 µM; in the assay on RPMI-8226, 8.17 µM (inactive); in the assay with SR, 36.2 µM (inactive). For the same compound, the GI50 with MDA-N is 18.2 µM (inactive); with HT-29, 16.7 µM (inactive); in the assay with SK-MEL-28 it was 17.2 µM (inactive); in the assay on SN12C, 24.5 µM (inactive); in the assay with RXF 393, 15.6 µM (inactive).
In the case of `O=C(C[n+]1ccccc1)N/N=C(\C(=O)NC1=C(Cl)C(=O)c2ccccc2C1=O)c1c(O)c2ccc(O)cc2oc1=O`, the GI50 was 6.5 µM (inactive) with SNB-75; 3.03 µM (inactive) in the assay on A549; 4.08 µM (inactive) with NCI/ADR-RES; 3.43 µM (inactive) with HL-60; 1.91 µM (inactive) in the assay on K562; 3.08 µM (inactive) with OVCAR-4. Further, the GI50 in the assay with MOLT-4 was 11 µM (inactive); in the assay on HOP-92, 14.8 µM (inactive); in the assay with TK-10, 23.7 µM (inactive); with T47D, 5.56 µM (inactive); in the assay with OVCAR-5, 12.3 µM (inactive); in the assay with HCT-15, 2.42 µM. The GI50 in the assay on RPMI-8226 is 5.96 µM (inactive); in the assay on SR it was 4.19 µM (inactive); in the assay with HT-29, 3.08 µM (inactive); in the assay with SK-MEL-28 it was 2.94 µM (inactive); in the assay on SN12C, 4.44 µM (inactive); in the assay with RXF 393 it was 9.35 µM (inactive).
For the compound `CC(C)C(N)C(=O)NC(CCC(=O)NCCCCC(N)C(=O)NCCCNc1ccc([N+](=O)[O-])c2[nH]c3ccccc3c(=O)c12)C(N)=O` (centres undefined), the GI50 was 48.9 µM (inactive) in the assay on SNB-75; 27.3 µM (inactive) with A549; 43 µM (inactive) in the assay on NCI/ADR-RES; > 100 µM (inactive) in the assay on K562; 20.6 µM (inactive) with OVCAR-4; 24.4 µM (inactive) in the assay on HOP-92. Also, the GI50 in the assay with TK-10 was > 100 µM (inactive); in the assay with T47D, > 100 µM (inactive); in the assay on OVCAR-5 it was > 100 µM (inactive); in the assay with HCT-15 it was 41.2 µM; in the assay on RPMI-8226, 33.7 µM (inactive); in the assay with SK-MEL-28, > 100 µM (inactive). Besides, the GI50 with RXF 393 was 11 µM (inactive).
As for `Cc1ccc(C(=O)Nc2ccc(S(=O)(=O)O)c3cc(S(=O)(=O)O)cc(S(=O)(=O)O)c23)cc1NC(=S)Nc1cc(C(=O)Nc2ccc(S(=O)(=O)O)c3cc(S(=O)(=O)O)cc(S(=O)(=O)O)c23)ccc1C`, the GI50 with SNB-75, in the assay with A549, in the assay on HL-60, in the assay on K562, in the assay on OVCAR-4 and with MOLT-4 was > 75 µM (inactive) throughout. The GI50 in the assay on TK-10 was > 75 µM (inactive); in the assay on OVCAR-5, > 75 µM (inactive); in the assay on HCT-15 it was more than 75 µM; in the assay on RPMI-8226, > 75 µM (inactive); in the assay on SR, > 75 µM (inactive); in the assay with MDA-N, > 75 µM (inactive). In addition, the GI50 with HT-29, in the assay with SK-MEL-28 and with SN12C was > 75 µM (inactive) in each case.
